Values after ≈ are worked out from the molar mass of the structure shown.

Holding throughout (assay type): functional
The test system of one assay is Proteus vulgaris. Put plainly: Minimum inhibitory concentration (MIC) preventing growth of Proteus vulgaris.
The subject of another assay is Bacillus subtilis. Put plainly: Minimum inhibitory concentration (MIC) preventing growth of Bacillus subtilis.
The test system of assay [1] is Staphylococcus epidermidis. Put plainly: Minimum inhibitory concentration (MIC) preventing growth of Staphylococcus epidermidis.
The next assay deals with Staphylococcus aureus. Put plainly: Minimum inhibitory concentration (MIC) preventing growth of […].
For a further assay, the system named is Bacillus cereus. Put plainly: Minimum inhibitory concentration (MIC) preventing growth of Bacillus cereus.
The subject of another assay is Klebsiella pneumoniae. As to the kind of experiment: Minimum inhibitory concentration (MIC)preventing growth of Klebsiella pneumoniae.
Another assay relates to Escherichia coli. Put plainly: Minimum inhibitory concentration (MIC)preventing growth of Escherichia coli.
For a further assay, the system named is Enterobacter cloacae. Put plainly: Minimum inhibitory concentration (MIC)preventing growth of Enterobacter cloacae.
The next assay deals with Pseudomonas aeruginosa. Put plainly: Minimum inhibitory concentration (MIC)preventing growth of Pseudomonas aeruginosa.
In the next assay the test system is Morganella morganii. Put plainly: Minimum inhibitory concentration (MIC) preventing growth of Morganella morganii.
The next assay concerns Enterococcus faecalis. Put plainly: Minimum inhibitory concentration (MIC) preventing growth of Streptococcus faecalis ATCC 10541.

Consider `CCC1(O)CN(c2cc3c(cc2F)c(=O)c(C(=O)O)cn3C2CC2)C1`, for which the MIC against Proteus vulgaris came to 0.25 µg/mL (≈ 0.722 µM); with Bacillus subtilis it was 0.015 µg/mL (≈ 0.0433 µM); in [1], 0.12 µg/mL (≈ 0.346 µM); in the assay on Staphylococcus aureus, 0.12 µg/mL (≈ 0.346 µM); against Bacillus cereus, 1 µg/mL (≈ 2.89 µM); against Klebsiella pneumoniae, 0.12 µg/mL (≈ 0.346 µM). Further, the minimal inhibitory concentration (MIC) was determined as 0.12 µg/mL (≈ 0.346 µM) with Escherichia coli; 0.25 µg/mL (≈ 0.722 µM) against Enterobacter cloacae; 2 µg/mL (≈ 5.77 µM) in the assay on Pseudomonas aeruginosa; 0.5 µg/mL (≈ 1.44 µM) against Morganella morganii; 1 µg/mL (≈ 2.89 µM) against Enterococcus faecalis.

With `CC1(N)CN(c2c(F)cc3c(=O)c(C(=O)O)cn(CCF)c3c2Cl)C1`, the minimum inhibitory concentration (MIC) with Proteus vulgaris was found to be 1 µg/mL (≈ 2.69 µM); against Bacillus subtilis it was 0.06 µg/mL (≈ 0.161 µM); in assay [1], 0.12 µg/mL (≈ 0.323 µM); in the assay with Staphylococcus aureus, 0.25 µg/mL (≈ 0.672 µM); with Bacillus cereus, 0.5 µg/mL (≈ 1.34 µM); in the assay with Klebsiella pneumoniae, 0.015 µg/mL (≈ 0.0403 µM). Moreover, the MIC amounted to 0.06 µg/mL (≈ 0.161 µM) in the assay on Escherichia coli; 0.015 µg/mL (≈ 0.0403 µM) with Enterobacter cloacae; 1 µg/mL (≈ 2.69 µM) in the assay with Pseudomonas aeruginosa; 0.015 µg/mL (≈ 0.0403 µM) in the assay on Morganella morganii; 1 µg/mL (≈ 2.69 µM) in the assay on Enterococcus faecalis.

Regarding `Nc1c(F)c(N2CC(N)C2)c(F)c2c1c(=O)c(C(=O)O)cn2C1CC1`, the MIC is 0.06 µg/mL (≈ 0.171 µM) in the assay with Proteus vulgaris; 0.015 µg/mL (≈ 0.0428 µM) in the assay with Bacillus subtilis; 0.12 µg/mL (≈ 0.343 µM) in assay [1]; 0.06 µg/mL (≈ 0.171 µM) with Staphylococcus aureus; 0.015 µg/mL (≈ 0.0428 µM) against Bacillus cereus; 0.015 µg/mL (≈ 0.0428 µM) against Klebsiella pneumoniae. Besides, the minimal inhibitory concentration (MIC) in the assay with Escherichia coli was found to be 0.015 µg/mL (≈ 0.0428 µM); against Enterobacter cloacae, 0.015 µg/mL (≈ 0.0428 µM); in the assay on Pseudomonas aeruginosa it was 0.25 µg/mL (≈ 0.714 µM); with Morganella morganii, 0.015 µg/mL (≈ 0.0428 µM); in the assay with Enterococcus faecalis, 0.25 µg/mL (≈ 0.714 µM).

With `CC1(N)CN(c2nc3c(cc2F)c(=O)c(C(=O)O)cn3CCF)C1`, the MIC in the assay on Proteus vulgaris came to 1 µg/mL (≈ 2.96 µM); with Bacillus subtilis, 0.12 µg/mL (≈ 0.355 µM); in [1] it was 0.5 µg/mL (≈ 1.48 µM); in the assay with Staphylococcus aureus, 0.5 µg/mL (≈ 1.48 µM); against Bacillus cereus, 0.5 µg/mL (≈ 1.48 µM); against Klebsiella pneumoniae, 0.06 µg/mL (≈ 0.177 µM). Further, the MIC in the assay on Escherichia coli turned out to be 0.06 µg/mL (≈ 0.177 µM); with Enterobacter cloacae, 0.12 µg/mL (≈ 0.355 µM); against Pseudomonas aeruginosa it was 2 µg/mL (≈ 5.91 µM); in the assay with Morganella morganii, 0.12 µg/mL (≈ 0.355 µM); against Enterococcus faecalis, 2 µg/mL (≈ 5.91 µM).

For the compound `CCn1cc(C(=O)O)c(=O)c2cc(F)c(N3CC(C)(N)C3)c(Cl)c21`, the MIC came out at 0.5 µg/mL (≈ 1.41 µM) against Proteus vulgaris; 0.06 µg/mL (≈ 0.17 µM) in the assay on Bacillus subtilis; 0.25 µg/mL (≈ 0.707 µM) in assay [1]; 0.25 µg/mL (≈ 0.707 µM) against Staphylococcus aureus; 0.25 µg/mL (≈ 0.707 µM) with Bacillus cereus; 0.03 µg/mL (≈ 0.0848 µM) in the assay on Klebsiella pneumoniae. Also, the minimal inhibitory concentration (MIC) turned out to be 0.03 µg/mL (≈ 0.0848 µM) in the assay with Escherichia coli; 0.06 µg/mL (≈ 0.17 µM) with Enterobacter cloacae; 1 µg/mL (≈ 2.83 µM) with Pseudomonas aeruginosa; 0.06 µg/mL (≈ 0.17 µM) in the assay on Morganella morganii; 1 µg/mL (≈ 2.83 µM) with Enterococcus faecalis.

`NC1CN(c2cc3c(cc2F)c(=O)c2c(=O)[nH]sc2n3C2CC2)C1`: the MIC in the assay on Proteus vulgaris was 0.12 µg/mL (≈ 0.346 µM); in the assay on Bacillus subtilis, 0.03 µg/mL (≈ 0.0866 µM); in assay [1], 0.06 µg/mL (≈ 0.173 µM); with Staphylococcus aureus, 0.06 µg/mL (≈ 0.173 µM); with Bacillus cereus it was 0.06 µg/mL (≈ 0.173 µM); against Klebsiella pneumoniae it was 0.03 µg/mL (≈ 0.0866 µM). Further, the MIC against Escherichia coli came out at 0.007 µg/mL (≈ 0.0202 µM); with Enterobacter cloacae, 0.03 µg/mL (≈ 0.0866 µM); against Pseudomonas aeruginosa, 0.25 µg/mL (≈ 0.722 µM); against Morganella morganii, 0.015 µg/mL (≈ 0.0433 µM); in the assay with Enterococcus faecalis, 0.12 µg/mL (≈ 0.346 µM).

As for `CC1(N)CN(c2cc3c(cc2F)c(=O)c(C(=O)O)cn3-c2ccc(F)cc2F)C1`, the MIC with Proteus vulgaris stood at 0.25 µg/mL (≈ 0.62 µM); against Bacillus subtilis, 0.12 µg/mL (≈ 0.298 µM); in assay [1] it was 0.25 µg/mL (≈ 0.62 µM); against Staphylococcus aureus, 0.25 µg/mL (≈ 0.62 µM); against Bacillus cereus, 0.25 µg/mL (≈ 0.62 µM); against Klebsiella pneumoniae, 0.12 µg/mL (≈ 0.298 µM). Moreover, the MIC against Escherichia coli was 0.12 µg/mL (≈ 0.298 µM); in the assay with Enterobacter cloacae, 0.25 µg/mL (≈ 0.62 µM); in the assay on Pseudomonas aeruginosa, 2 µg/mL (≈ 4.96 µM); against Morganella morganii it was 0.25 µg/mL (≈ 0.62 µM); in the assay with Enterococcus faecalis, 0.12 µg/mL (≈ 0.298 µM).

`CNC1CN(c2nc3c(cc2F)c(=O)c(C(=O)O)cn3C2CC2)C1`: the MIC against Proteus vulgaris stood at 0.25 µg/mL (≈ 0.752 µM); against Bacillus subtilis it was 0.06 µg/mL (≈ 0.181 µM); in assay [1], 0.12 µg/mL (≈ 0.361 µM); against Staphylococcus aureus, 0.25 µg/mL (≈ 0.752 µM); against Bacillus cereus, 0.12 µg/mL (≈ 0.361 µM); in the assay on Klebsiella pneumoniae, 0.03 µg/mL (≈ 0.0903 µM). Also, the minimal inhibitory concentration (MIC) against Escherichia coli is 0.03 µg/mL (≈ 0.0903 µM); in the assay on Enterobacter cloacae, 0.03 µg/mL (≈ 0.0903 µM); in the assay with Pseudomonas aeruginosa it was 0.5 µg/mL (≈ 1.5 µM); with Morganella morganii it was 0.06 µg/mL (≈ 0.181 µM); against Enterococcus faecalis it was 0.5 µg/mL (≈ 1.5 µM).

On to `CCNC1CN(c2cc3c(cc2F)c(=O)c2c(=O)[nH]sc2n3C2CC2)C1`, for which the MIC in the assay with Proteus vulgaris is 0.12 µg/mL (≈ 0.32 µM); against Bacillus subtilis it was 0.03 µg/mL (≈ 0.0801 µM); in assay [1], 0.06 µg/mL (≈ 0.16 µM); in the assay with Staphylococcus aureus, 0.06 µg/mL (≈ 0.16 µM); in the assay with Bacillus cereus, 0.12 µg/mL (≈ 0.32 µM); against Klebsiella pneumoniae, 0.03 µg/mL (≈ 0.0801 µM). In addition, the MIC against Escherichia coli was found to be 0.03 µg/mL (≈ 0.0801 µM); in the assay with Enterobacter cloacae, 0.03 µg/mL (≈ 0.0801 µM); in the assay with Pseudomonas aeruginosa, 0.5 µg/mL (≈ 1.34 µM); in the assay with Morganella morganii, 0.06 µg/mL (≈ 0.16 µM); in the assay with Enterococcus faecalis, 0.5 µg/mL (≈ 1.34 µM).

In the case of `O=C(O)c1cn(C2CC2)c2cc(N3CCC3)c(F)cc2c1=O`, the MIC against Proteus vulgaris was 0.06 µg/mL (≈ 0.198 µM); against Bacillus subtilis it was 0.015 µg/mL (≈ 0.0496 µM); in [1], 0.06 µg/mL (≈ 0.198 µM); in the assay with Staphylococcus aureus, 0.06 µg/mL (≈ 0.198 µM); against Bacillus cereus it was 0.06 µg/mL (≈ 0.198 µM); against Klebsiella pneumoniae, 0.015 µg/mL (≈ 0.0496 µM). Further, the MIC against Escherichia coli amounted to 0.12 µg/mL (≈ 0.397 µM); in the assay with Enterobacter cloacae it was 0.12 µg/mL (≈ 0.397 µM); with Pseudomonas aeruginosa it was 2 µg/mL (≈ 6.62 µM); with Morganella morganii, 0.25 µg/mL (≈ 0.827 µM); in the assay on Enterococcus faecalis it was 2 µg/mL (≈ 6.62 µM).

Values taken from ChEMBL document CHEMBL1126625, “7-Azetidinylquinolones as antibacterial agents. Synthesis and structure-activity relationships” (J Med Chem, 1993).
